US20200392075A1, “COMPOSITIONS AND METHODS FOR TREATMENT OF INSULIN RESISTANCE” (Temple University - Of The Commonwealth System Of Higher …, priority 2018, published 2020)

Legend:
GLUT4 = molecular target: T1, GLUT4 (Homo sapiens, UniProt P14672); assay: HNE-induced GLUT4 carbonylation (K264-HNE adduct) by MRM in 3T3-L1 adipocytes overexpressing GLUT4-SNAP; format: cell-based; conditions: 20 μM for 4 hour, 3T3-L1 cells overexpressing GLUT4
T1 construct: SNAP (SNAP-tag fusion partner); expressed in transfected cells; host or cells: 3T3-L1 adipocytes, retrovirally transduced
T1 sequence (P14672 1-509): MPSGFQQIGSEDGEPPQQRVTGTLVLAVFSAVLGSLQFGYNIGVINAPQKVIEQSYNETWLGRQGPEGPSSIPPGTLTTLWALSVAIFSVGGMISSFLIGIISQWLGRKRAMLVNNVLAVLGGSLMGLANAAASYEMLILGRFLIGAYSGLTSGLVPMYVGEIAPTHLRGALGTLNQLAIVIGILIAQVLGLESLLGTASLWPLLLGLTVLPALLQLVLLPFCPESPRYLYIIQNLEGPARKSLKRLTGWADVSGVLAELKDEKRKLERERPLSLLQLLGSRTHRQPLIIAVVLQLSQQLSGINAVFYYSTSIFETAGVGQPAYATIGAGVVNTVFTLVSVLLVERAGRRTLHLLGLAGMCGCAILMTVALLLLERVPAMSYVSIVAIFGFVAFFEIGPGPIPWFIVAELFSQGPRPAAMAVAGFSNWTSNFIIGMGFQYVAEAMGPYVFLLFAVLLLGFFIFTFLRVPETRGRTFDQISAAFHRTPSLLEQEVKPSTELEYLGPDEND
Protocol: A GLUT4-SNAP fusion construct is generated. 3T3-L1 adipocytes were then retrovirally transduced with the construct to overexpress the GLUT4-SNAP protein. Twenty-four hours after the transduction, the cells were treated with and without 20 μM of 4-HNE for an additional 4 hours. This 4-HNE dose is chosen because it is similar to the physiological levels and is non-toxic. In order to identify and quantitate GLUT4 carbonylation (K264 NHE-adduct or R265 and R246 glutamic semialdehyde adducts), a mass spectroscopy-based multiple reaction monitoring (MRM) method is developed and validated.
[…] of the GLUT4 peptide found in humans were used for quantitation.

3T3-L1 adipocytes = assay: Insulin-induced glucose uptake by 3T3-L1 adipocytes after 4-HNE / H2O2 treatment (MRM); format: cell-based, mouse; conditions: 500 μM for 4 hour, then 100 nM insulin for 60 minutes
Protocol: 3T3-L adipocytes (1×10^6) were treated with either 500 μM of 4-HNE or H2O2 or combination of both for 4 hour and were then stimulated with 100 nM insulin for 60 minutes. The glucose uptake is measured by a specific MRM method.

Row | Compound | formation of the K264-HNE adduct (GLUT4 carbonylation) (GLUT4) | reduction of insulin-induced glucose uptake (3T3-L1 adipocytes) [%]
1 | CCCCCC(O)/C=C/C=O (stereo not drawn) [Example 4-HNE, 4-hydroxynonenal] | induced the formation of the K264-HNE adduct | 32
2 | OO [Example H2O2] | – | 66
